According to publication PMC7618719, “Generation of T cells with reduced off-target cross-reactivities by engineering co-signalling receptors” (Nature Biomedical Engineering, 2026):

Test system: Lck
Assay: Lck chemical inhibition assay, CD69 on A-770041-treated c259 TCR-T cells
Format: cell-based, human
Details: c259 TCR-T cells treated 1 h with A-770041, U87 with NY-ESO-1 peptides, 4 h, CD69 and TNFα
Method: U87 cells (50,000) in 100 μl of DMEM were seeded per well in a 96-well flat-bottom plate and incubated overnight. T cells were treated with the appropriate concentration of A-770041 for 1 h. The DMEM media were discarded and 50,000 A-770041-treated T cells were added to each well in 200 μl of RPMI media. Cells were incubated for 4 h at 37 ^∘C and 5% CO2.
Cells were stained for 20 min at 4 ^∘C, washed with PBS and analysed using a BD X-20 or a Cytoflex LX flow cytometer (Beckman Couter). Data were analysed using FlowJo v.10, RRID:SCR008520 (BD Biosciences) and GraphPad Prism, RRID:SCR002798 (GraphPad Software).

COc1cc(-c2nn([C@H]3CC[C@H](N4CCN(C(C)=O)CC4)CC3)c3ncnc(N)c23)ccc1NC(=O)c1cc2ccccc2n1C [A-770041]
effect of Lck inhibition on T cell ligand discrimination: increases T cell ligand discrimination
